PubChem BioAssay (NCI)
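Tested at 5 concentrations; 48 h exposure; 96-well plates; endpoints linearly interpolated, else capped at highest concentration. TGI: concentration producing complete growth inhibition.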

How the values were obtained:
Assay in all cases: NCI tumour cell line growth inhibition, 48 h
T-47D breast = tested on: T-47D breast
KM12 colon = tested on: KM12 colon
ACHN renal = tested on: ACHN renal
U251 CNS = tested on: U251 CNS
SF-295 CNS = tested on: SF-295 CNS
OVCAR-5 ovarian = tested on: OVCAR-5 ovarian
RXF 393 renal = tested on: RXF 393 renal
SR leukemia = tested on: SR leukemia
NCI/ADR-RES ovarian = tested on: NCI/ADR-RES ovarian
NCI-H522 lung = tested on: NCI-H522 lung
SK-OV-3 ovarian = tested on: SK-OV-3 ovarian
OVCAR-4 ovarian = tested on: OVCAR-4 ovarian
SNB-75 CNS = tested on: SNB-75 CNS
SK-MEL-5 melanoma = tested on: SK-MEL-5 melanoma
K-562 leukemia = tested on: K-562 leukemia
HCT-15 colon = tested on: HCT-15 colon
CCRF-CEM leukemia = tested on: CCRF-CEM leukemia
IGROV1 ovarian = tested on: IGROV1 ovarian
RPMI-8226 leukemia = tested on: RPMI-8226 leukemia
MOLT-4 leukemia = tested on: MOLT-4 leukemia
TK-10 renal = tested on: TK-10 renal
MDA-N = tested on: MDA-N
HS 578T breast = tested on: HS 578T breast
MCF7 breast = tested on: MCF7 breast
SK-MEL-28 melanoma = tested on: SK-MEL-28 melanoma
LOX IMVI melanoma = tested on: LOX IMVI melanoma
786-0 renal = tested on: 786-0 renal
NCI-H23 lung = tested on: NCI-H23 lung
EKVX NSCLC = tested on: EKVX NSCLC
MDA-MB-435 = tested on: MDA-MB-435
HT29 colon = tested on: HT29 colon
SN12C renal = tested on: SN12C renal
HCT-116 colon = tested on: HCT-116 colon
NCI-H226 lung = tested on: NCI-H226 lung
A498 renal = tested on: A498 renal
M14 melanoma = tested on: M14 melanoma
A549 NSCLC = tested on: A549 NSCLC
HL-60(TB) leukemia = tested on: HL-60(TB) leukemia
HOP-62 NSCLC = tested on: HOP-62 NSCLC
SW-620 colon = tested on: SW-620 colon
PC-3 prostate = tested on: PC-3 prostate
CAKI-1 renal = tested on: CAKI-1 renal
MALME-3M melanoma = tested on: MALME-3M melanoma
HOP-92 NSCLC = tested on: HOP-92 NSCLC
SF-539 CNS = tested on: SF-539 CNS
UACC-62 melanoma = tested on: UACC-62 melanoma
DU-145 prostate = tested on: DU-145 prostate
BT-549 breast = tested on: BT-549 breast
MDA-MB-231 breast = tested on: MDA-MB-231 breast
OVCAR-8 ovarian = tested on: OVCAR-8 ovarian
COLO 205 colon = tested on: COLO 205 colon
SK-MEL-2 melanoma = tested on: SK-MEL-2 melanoma
SF-268 CNS = tested on: SF-268 CNS
UACC-257 melanoma = tested on: UACC-257 melanoma
OVCAR-3 ovarian = tested on: OVCAR-3 ovarian
NCI-H460 lung = tested on: NCI-H460 lung
SNB-19 CNS = tested on: SNB-19 CNS
UO-31 renal = tested on: UO-31 renal

Measured: TGI

Cc1nc2sc3ccccc3n2c(=O)c1N=Nc1ccc(Br)cc1
not listed: UO-31 renal
> 100 µM: all other assays above

O=C(O)CN1CCN2CCOCCOCCN(CC1)CCN(CC(=O)O)CC2
not listed: RXF 393 renal | MOLT-4 leukemia | NCI-H23 lung | HL-60(TB) leukemia | SF-268 CNS
> 100 µM: all other assays above
